Reference: patent US20180369289A1, “CELL TRANSPLANTATION DEVICE” (THE REGENTS OF THE UNIVERSITY OF CALIFORNIA, priority 2015, published 2018)
Entries after “also recorded” stand apart in the source; their conditions may differ.

Columns and labels:
[1] = PFC oxygen content and release in culture media; type: physicochemical
Procedure: (§1) Islets from Sprague Dawley rats were isolated, cultured, and assessed as described above. Three concentrations of perfluorodecalin (“PFD”) were added to the culture media: 0.1 ml PFC/ml media (“low PFC”), 0.375 ml PFC/ml media (“medium PFC”), and 0.75 ml PFC/ml media (“high PFC”).
A first experiment was performed under 20% and 0% oxygen culture conditions in the absence of islets to characterize the oxygen release rates of various PFC concentrations and under different PFC-oxygen charging conditions. […] The PFCs were charged for 15 minutes in 40% O2 prior to plating.

islets [2] = assay: Effect of PFCs on islet viability in hypoxic culture; type: cell-based, Sprague Dawley rats; details: for Apoptotic (%) / Dead (%) / Live (%): 0% O2, 24 hours
Procedure: (§2) For all viability studies, islets were stained with the following probes to determine viability status based on positive staining: Calcein Blue: live; propidium iodide: dead; and YoPro-1; apoptotic. Islet function was evaluated by looking at glucose stimulated insulin response (GSIR). Islet stimulation index (insulin release at high glucose concentration/insulin release at low glucose concentrations) or SI was calculated after insulin release was quantified using an ELISA.
as §1
In a second experiment, islets were plated under 0% or 20% oxygen conditions, as outlined above. Hypoxic islets were supplemented with low, medium, or high PFC levels, charged for 15 minutes in 40% O2 prior to plating. Islet viability was assessed as described above.

[3] = Oxygen release from POGS (dissolved oxygen in media, hypoxia chamber); type: physicochemical
Procedure: (§3) Islets were obtained from male Sprague Dawley Rats (300-350 g) and cultured in vitro overnight at 37° C., 5% CO2. Supplemented CMRL media (Gibco) incubated at 0% O2 overnight in a hypoxia chamber (XVivo, Biospherix) in order to allow media to deoxygenate. Dissolved oxygen levels were measured in the media using dissolved oxygen meter (Oakton D110).
Phosphate-complexed calcium peroxide (PcCPO) was synthesized by mixing calcium peroxide (CPO) with phosphate-buffered saline at 10 mg/mL and incubating at 37° C. overnight. CP or PcCP was dissolved in a 1.5% UPLVM solution and alginate microcapsules were produced as described above. All oxygen concentration assays were performed in a controlled hypoxic chamber at 37° C. 5% CO2 0% ambient O2 to ensure that the data obtained was not confounded by changes in ambient O2 during the experiment.
[…] No islets were used in this experiment. […] When a 1:1 mixture of culture media and PBS was used, unencapsulated CPO (“PGS/PBS”) caused a rapid rise to 20% dissolved oxy gen which was sustained for at least an hour before gradually falling to 10%.

islets [4] = assay: Glucose-stimulated insulin release (GSIR) of islets cultured at 0% O2 with CPO; type: cell-based, Sprague Dawley Rats; details: added to the culture media; p<0.05
Procedure: as §3, §2
In order to be useful for diabetes treatment, the isolated islets must retain the ability to produce insulin, not just maintain viability. Thus, the insulin release characteristics of islets cultured at 0% O2 in the presence of CPO was investigated by measuring the glucose-stimulated insulin release (GSIR).

islets [5] = assay: Viability of isolated islets under hypoxia with CPO; type: cell-based, Sprague Dawley Rats; details: 5 mg/ml or 10 mg/ml in culture media or culture media/PBS mixture; p<0.01 relative to 0% O2 without POGS
Procedure: as §3, §2
About 60% and 70% of islets were alive and viable immediately after isolation and after the 24 hour culture at 20% O2, respectively. However, the proportion of live/viable islets dropped to less than 30% after 24 hour culture at 0% O2. Islets cultured for 24 hours at 0% O2 were rescued by 5 mg/ml or 10 mg/ml CPO (“POGS”) in culture media or in the culture media/PBS mixture (p<0.01 relative to 0% O2 without POGS).

macrophages = assay: Macrophage attachment to microcapsules cultured with macrophages; type: cell-based; details: incorporated in 2.5% UPLVM microcapsules with porcine islet cells
Procedure: Porcine islet cells were encapsulated to 2.5% UPLVM microcapsules using the methods described above. One set of microcapsules incorporated CXCL12/SLF-1 to investigate the locally immunosuppressive effects of this immunorepellant. Microcapsules were then cultured in the presence of macrophages.

[6] = medium PFC 0.375 ml PFC/ml media

## FC1(F)C(F)(F)C(F)(F)C2(F)C(F)(F)C(F)(F)C(F)(F)C(F)(F)C2(F)C1(F)F (centres unmarked) [PFC, perfluorodecalin]
[1]; charged 15 to 90 minutes in 40% O2, added to culture media at 20% O2
  Time for oxygen content to fall from 40% to the ambient 20%: ≤ 10 min
[1]; charged 15 minutes in 40% O2
  O2 release profile under hypoxic conditions: prolonged O2 release profile
Islets [2]; high PFC 0.75 ml PFC/ml media
  Apoptotic (%): 17.7%
  Dead (%): 39.9%
  Live (%): 42.3%
Islets [2]; low PFC 0.1 ml PFC/ml media
  Apoptotic (%): 8.73%
  Dead (%): 42.1%
  Live (%): 49.2%
Islets [2]; [6]
  Apoptotic (%): 0.355%
  Dead (%): 69.1%
  Live (%): 30.5%
Islets [2]; all PFC concentrations
  Islet viability at 24 hours under hypoxic conditions: significantly improved islet viability

## Phosphate-complexed calcium peroxide [PcCPO]
[3]; encapsulated, 5 mg/ml
  Dissolved oxygen content versus uncomplexed CPO: higher dissolved oxygen content than uncomplexed CPO
Islets [4]
  Effect on reduction of GSIR in islets cultured 24 hrs at 0% O2: significantly reversed this reduction

## [Ca+2].[O-][O-] [CPO, calcium peroxide]
Islets [5]
  Viability of islets cultured 24 hours at 0% O2: rescued
[3]; unencapsulated CPO 10 mg/ml in 1:1 culture media and PBS, after gradual fall
  Dissolved oxygen content: 10%
[3]; unencapsulated CPO 10 mg/ml in 1:1 culture media and PBS, rapid rise, sustained at least an hour
  Dissolved oxygen content: 20%
[3]; unencapsulated CPO 10 mg/ml in culture media, hypoxia chamber, immediate and sustained
  Dissolved oxygen content: about 40%
Islets [4]
  Effect on reduction of GSIR in islets cultured 24 hrs at 0% O2: significantly reversed this reduction

## CXCL12/SLF-1: immunorepellant incorporated into 2.5% UPLVM microcapsules
macrophages
  Macrophage attachment to microcapsule: no macrophage attachment; also recorded: observed only for the microcapsules lacking CXCL12/SLF-1
